This note sets out measurements from US8148556B2, “Method of producing tibolone metabolites by fermentation with Rhizopus stolonifer” (priority 2007, dated 2012).

Entries after “also recorded” stand apart in the source; their conditions may differ.

The test system of data set [1] is α-Glucosidase (E.C.3.2.1.20). Nature of the data set: α-Glucosidase enzyme inhibition assay. It is filed as biochemical. Conditions: for Active (activity against alpha-glucosidase enzyme): Table 1; for IC50: pH 6.9, 37° C., 0.7 mM PNP-G substrate, NA = inactive compounds. Here is the method:
α-Glucosidase Enzyme Inhibition Assay
α-Glucosidase (E.C.3.2.1.20) enzyme inhibition assay has been performed according to the slightly modified method of Matsui et al. α-Glucosidase (E.C.3.2.1.20) from Saccharomyces sp. was purchased from Wako Pure Chemical Industries Ltd. (Wako 076-02841). The inhibition has been measured spectrophotometrically at pH 6.9 and at 37° C. using 0.7 mM p-nitrophenyl α-D glucopyranoside (PNP-G) as a substrate and 250 m units/mL enzyme in 50 mM sodium phosphate buffer containing 100 mM NaCl. […] The increment in absorption at 400 nm due to the hydrolysis of PNP-G by α-glucosidase was monitored continuously with the spectrophotometer (Molecular Devices, USA). The concentrations of the test compounds, which inhibited the hydrolysis of PNP-G by α-glucosidase by 50% (IC50), were determined by monitoring the effect of increasing the concentration of these compounds on the inhibition values. The IC50 values were then calculated using EZ-Fit enzyme kinetics program (Perrella Scientific Inc., Amherst, Mass., U.S.A.).

The target in data set [2] is T1, enzyme tyrosinas (Homo sapiens, UniProt P14679).
T1 sequence (P14679 19-529): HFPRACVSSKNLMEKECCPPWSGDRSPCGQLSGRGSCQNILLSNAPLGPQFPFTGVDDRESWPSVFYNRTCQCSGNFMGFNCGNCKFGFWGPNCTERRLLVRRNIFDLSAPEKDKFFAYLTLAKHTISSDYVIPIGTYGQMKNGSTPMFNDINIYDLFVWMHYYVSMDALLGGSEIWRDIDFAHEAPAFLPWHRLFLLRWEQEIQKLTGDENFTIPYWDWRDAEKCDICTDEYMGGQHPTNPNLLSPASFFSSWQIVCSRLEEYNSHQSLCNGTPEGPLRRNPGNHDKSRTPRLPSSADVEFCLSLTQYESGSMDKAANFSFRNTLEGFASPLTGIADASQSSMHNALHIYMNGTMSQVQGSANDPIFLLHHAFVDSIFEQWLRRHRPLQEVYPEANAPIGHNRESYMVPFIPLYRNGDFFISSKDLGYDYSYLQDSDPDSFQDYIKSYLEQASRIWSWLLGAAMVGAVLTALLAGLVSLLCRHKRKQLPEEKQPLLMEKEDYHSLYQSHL
Nature of the data set: inhibitory activity against enzyme tyrosinas. The class given is biochemical.

In the case of `C#C[C@]1(O)CC[C@H]2[C@@H]3[C@H](C)[C@@H](OC)C4=CC(=O)CC[C@@H]4[C@H]3CC[C@@]21C` [Compound 16, 7α-methyl-17α-ethynl-6β-methoxy-17β-hydroxy-19-norandrost-4-en-3-one], the “Active (activity against alpha-glucosidase enzyme)” value (from here on “Active”) in data set [1] is listed as “No”.
Still for that read-out and setting: as for `C#CC1(O)CCC2C3C(C)C=C4CC(=O)CCC4C3CCC21C` (stereo not drawn) [Compound 11, 7α-methyl-17α-ethynl-17β-hydroxy-19-norandrost-5-en-3-one], the entry is “No”.
A word on the IC50: it is the concentration at which inhibition is half-maximal. Read a high IC50 as weaker potency. For orientation: melting point means the temperature, or range, at which the solid turns liquid. As to `C#CC1(O)CCC2C3C(C)C(O)C4=CC(=O)CCC4C3CCC21C` (stereo not drawn) [Compound 13, 6α-Hydroxy-Δ^4-tibolone], the melting point was 187 to 190 °C. Further, in data set [1], the “inhibitory activity against α-Glucosidase enzyme (in words)” value is on record as “pronounced inhibitory activities; also recorded: pronounced inhibitory activity”, the “Active” value is on record as “Yes” and the half-maximal inhibitory concentration (IC50) is under 70 µM.
Turning to `C#CC1(O)CC(O)C2C3C(C)C=C4CC(=O)CCC4C3C(O)CC21C` (stereo not drawn) [Compound 10, 7α-methyl-17α-ethynl-11α,15β,17β-trihydroxy-19-norandrost-5-en-3-one], in data set [1], the “Active” value was “No”. Moreover, in data set [2], the “inhibitory activity against enzyme tyrosinas (in words)” value is reported as “pronounced inhibitory activity”.
Take `C#C[C@]1(O)CC[C@H]2[C@@H]3[C@H](C)CC4=C(CCC(=O)C4)[C@H]3CC[C@@]21C` [Compound 1, Tibolone]: the “Active” value in data set [1] was “No”.
Turning to `C#CC1(O)CC(O)C2C3C(C)CC4=C(CCC(=O)C4)C3C(O)CC21C` (stereo not drawn) [Compound 9, 7α-methyl-17α-ethynl-11α,15β,17β-trihydroxy-19-norandrost-5(10)-en-3-one], the “Active” value in data set [1] is “No”. Also, the “inhibitory activity against enzyme tyrosinas (in words)” value in data set [2] was “pronounced inhibitory activity”.
Consider `C#CC1(O)CCC2C3C(C)C(O)C4=CC(=O)C=CC4C3CCC21C` (stereo not drawn) [Compound 15, 7α-methyl-17α-ethynl-6α,17β-dihydroxy-19-norandrost-1,4-dien-3-one], for which, in data set [1], the “inhibitory activity against α-Glucosidase enzyme (in words)” value is “significant activity; also recorded: pronounced inhibitory activity”, the “Active” value was “Yes” and 340 ± 0.02 µM corresponded to half-maximal inhibition (IC50).
Molecule `C#CC1(O)CCC2C3C(C)C(O)C4=CC(=O)CCC4C3CCC21C` (stereo not drawn) [Compound 12, 6β-Hydroxy-Δ^4-tibolone] gave a melting point of 189 to 193 °C. Moreover, in data set [1], the “inhibitory activity against α-Glucosidase enzyme (in words)” value is given as “pronounced inhibitory activities; also recorded: pronounced inhibitory activity”, the “Active” value is listed as “Yes” and the IC50 worked out at 653 ± 0.02 µM.
On to `C#CC1(O)CC(O)C2C3C(C)CC4=CC(=O)CCC4C3CCC21C` (stereo not drawn) [Compound 14, 15α-Hydroxy-Δ^4-tibolone], for which, in data set [1], the “Active” value is reported as “Yes” and the IC50 was under 70 µM.
Turning to `C#C[C@]1(O)CC[C@H]2[C@@H]3[C@H](C)CC4=C(CC[C@@H](O)C4)[C@H]3CC[C@@]21C` [Compound 3, 3α-hydroxytibolone], the “Active” value in data set [1] is “No”.
Regarding `C#CC1(O)CCC2C3C(C)CC4=CC(=O)CCC4(O)C3CCC21C` (stereo not drawn) [Compound 8, 7α-methyl-17α-ethynl-10β,17β-dihydroxy-19-norandrost-4-en-3-one], in data set [1], the “inhibitory activity against α-Glucosidase enzyme (in words)” value was “pronounced inhibitory activities”, the “Active” value is recorded as “No” and it took 877 ± 0.03 µM to reach half-maximal inhibition (IC50).
Regarding `C#C[C@]1(O)CC[C@H]2[C@@H]3[C@H](C)CC4=C(CC[C@H](O)C4)[C@H]3CC[C@@]21C` [Compound 2, 3β-hydroxytibolone], the “Active” value in data set [1] is recorded as “No”.
As for `C#CC1(O)CCC2C3C(C)CC4=CC(=O)C=CC4C3CCC21C` (stereo not drawn) [Compound 7, 7α-methyl-17α-ethynl-17β-hydroxy-19-norandrost-1,4-dien-3-one], in data set [1], the “inhibitory activity against α-Glucosidase enzyme (in words)” value is given as “significant activity”, the “Active” value is recorded as “Yes” and the IC50 is 227 ± 0.02 µM.
